According to PMC9734143, “An efficient human stem cells derived cardiotoxicity testing platform for testing oncotherapeutic analogues of quercetin and cinnamic acid” (Scientific Reports, 2022):
Read-outs that look alike come from different tables or passages of the source.

Experiments:
H9C2 cells [1] = experiment: LDH release assay in H9C2 cells; assay type: cell-based, rat; conditions: 24 h; analogues at Vero IC50 concentration
Description: (§1) The experiment was performed as per the manufacturer’s protocol. Absorbance was taken at 490 nm and 680 nm (background signal) using multimode plate reader. LDH activity was calculated by subtracting absorbance taken at 680 nm from 490 nm.

[2] = tested on: cardiomyocytes (WJCM and H9C2 cells); experiment: Cardiotoxicity across parameters as summarised in the discussion (WJCM and H9C2 cells); assay type: cell-based, human and rat; conditions: for overall cardiotoxicity across the parameters analyzed: analogues at Vero IC50 concentration, 24 h
Source text: We investigated the effects of 3-hydroxyflavone (QMJ-2, QMJ-5, and QMJ-6) and cinnamyl sulfonamide-hydroxamate (NMJ-1, NMJ-2, NMJ-3) in WJCM and H9C2 cells using the concentrations reported for non-cancerous Vero cells. The prerequisite for any synthesized drug molecules is that they should be nontoxic to cardiac cells.

[3] = tested on: WJMSC-derived cardiomyocytes (WJCM); experiment: LDH release assay in WJCM; assay type: cell-based, human; conditions: 24 h; analogues at Vero IC50 concentration
Description: as §1

[4] = tested on: cardiac markers (NKX2.5, GATA4, Troponin I, Troponin T, MHCα) in WJCM; experiment: qRT-PCR gene expression of cardiac-specific markers in WJCM
Description: Differentiation of WJMSCs was done using a proprietary combination of DNMT and HDAC inhibitors in KO-DMEM/F-12 containing 10% FBS for 48 h. Induction media was replaced with culture media i.e. KO-DMEM/F-12 with 1X GlutaMAX and, 10% FBS after 48 h for 7 days[23].
WJMSC-derived cardiomyocytes (WJCM) and H9C2 were treated with NMJ and QMJ analogues for 24 h. […] To illustrate the toxicity specific to cardiac cells and not a general cytotoxicity, WJMSCs were treated with positive cardiotoxic drugs.
Total ribonucleic acid (RNA) was isolated using RNAiso Plus (TaKaRa, Shiga, Japan) followed by cDNA conversion using PrimeScript™ 1st strand cDNA synthesis kit (TaKaRa, Shiga, Japan). Quantitative reverse transcriptase-polymerase chain reaction (qRT-PCR) was performed by using TB Green™ Premix Ex Taq™ II (Tli RNase H Plus; TaKaRa, Shiga, Japan) for cardiac markers in a QuantStudio™ 5 real-time PCR Systems (Applied Biosystems, USA). All the primers were purchased from Sigma Aldrich, Bangalore, India (Table 1). The relative gene expression was calculated using 2^-∆∆CT and GAPDH, a housekeeping gene was used as endogenous control[52],[53].

[5] = tested on: Vero, a non-cancerous cell line; parameters: method as in PMID 25824412, PMID 30687400; conditions: read-out: IC50 in Vero cells; cited from earlier work
H9C2 cells [6] = experiment: MTT cell viability assay in H9C2 cells; assay type: cell-based, rat; conditions: 24 h; analogues at Vero IC50 concentration; Dox 1 µM
Description: (§2) Similarly, the toxicity of these compounds in terms of the viability of cells was estimated by using the MTT assay and cell counting kit-8 (CCK-8) assay. For MTT assay, after 24 h of treatments, MTT (5 mg/ml of PBS; HiMedia, India) was added, and cells were incubated for 2 h at 37 °C. The formazan crystals that were formed after the incubation were dissolved using dimethyl sulfoxide (DMSO). For the CCK-8 assay, 10 μL of CCK-8 solution (Boster Biological Technology, Pleasanton, CA, USA) was added to each well and incubated for 2 h at 37 °C. The absorbance for MTT and CCK-8 assay was measured at 570 nm and 450 nm respectively using the EnSight™ Multimode plate reader (Perkin Elmer, MA, USA)[49],[50].

colorectal cancer = tested on: colorectal cancer; parameters: method as in PMID 25824412, PMID 30687400; conditions: previously reported studies; cited from earlier work
[7] = tested on: WJMSC-derived cardiomyocytes (WJCM); experiment: MTT and CCK-8 cell viability assays in WJCM; assay type: cell-based, human; conditions: 24 h; analogues at Vero IC50 concentration; Dox 1 µM
Description: as §2

WJMSCs [8] = experiment: MTT cell viability assay in undifferentiated WJMSCs; assay type: cell-based, human; conditions: 24 h; Dox 1 µM, 5FU 1 µM, Cis 5 µM; undifferentiated cells
Description: Similarly, the toxicity of these compounds in terms of the viability of cells was estimated by using the MTT assay and cell counting kit-8 (CCK-8) assay. For MTT assay, after 24 h of treatments, MTT (5 mg/ml of PBS; HiMedia, India) was added, and cells were incubated for 2 h at 37 °C. The formazan crystals that were formed after the incubation were dissolved using dimethyl sulfoxide (DMSO). For the CCK-8 assay, 10 μL of CCK-8 solution (Boster Biological Technology, Pleasanton, CA, USA) was added to each well and incubated for 2 h at 37 °C.

WJMSCs [9] = experiment: LDH release assay in undifferentiated WJMSCs; assay type: cell-based, human; conditions: 24 h; Dox 1 µM, 5FU 1 µM, Cis 5 µM; undifferentiated cells
Description: Mesenchymal stem cells from Wharton's jelly (WJMSCs) were isolated from the Wharton's jelly of the human umbilical cord via enzymatic digestion as described previously with slight modifications. Experiments were performed after obtaining clearance from Institutional Ethical Committee ([…] Hospital, Bangalore, India. Informed consent was obtained from the donor and all the experiments were performed in accordance with relevant guidelines and regulations. Rat cardiomyoblast cell line, H9C2 was obtained from National Centre for Cell Science (NCCS), Pune, India. WJMSCs were maintained in KnockoutTM Dulbecco's Modified Eagle Medium/Nutrient Mixture F-12 (KO-DMEM/F-12; Gibco, MA, USA) with 10% Fetal bovine serum (FBS, Gibco, MA, USA), 1X GlutaMAX (Gibco, MA, USA), and 1X Antibiotic Antimycotic Solution (Gibco, MA, USA). H9C2 cells were cultured in Dulbecco's Modified Eagle Medium-High Glucose (DMEM-HG; Gibco, MA, USA) supplemented with 10% FBS and 1X Antibiotic-Antimycotic solution at 37 °C in 5% CO2 incubator. […] The experiment was performed as per the manufacturer's protocol. Absorbance was taken at 490 nm and 680 nm (background signal) using multimode plate reader. LDH activity was calculated by subtracting absorbance taken at 680 nm from 490 nm.

WJMSCs [10] = experiment: CCK-8 assay in undifferentiated WJMSCs; assay type: cell-based, human; conditions: 24 h; Dox 1 µM, 5FU 1 µM, Cis 5 µM; undifferentiated cells
Description: Mesenchymal stem cells from Wharton's jelly (WJMSCs) were isolated from the Wharton's jelly of the human umbilical cord via enzymatic digestion as described previously with slight modifications. Experiments were performed after obtaining clearance from Institutional Ethical Committee ([…] Hospital, Bangalore, India. Informed consent was obtained from the donor and all the experiments were performed in accordance with relevant guidelines and regulations. Rat cardiomyoblast cell line, H9C2 was obtained from National Centre for Cell Science (NCCS), Pune, India. WJMSCs were maintained in KnockoutTM Dulbecco's Modified Eagle Medium/Nutrient Mixture F-12 (KO-DMEM/F-12; Gibco, MA, USA) with 10% Fetal bovine serum (FBS, Gibco, MA, USA), 1X GlutaMAX (Gibco, MA, USA), and 1X Antibiotic Antimycotic Solution (Gibco, MA, USA). H9C2 cells were cultured in Dulbecco's Modified Eagle Medium-High Glucose (DMEM-HG; Gibco, MA, USA) supplemented with 10% FBS and 1X Antibiotic-Antimycotic solution at 37 °C in 5% CO2 incubator. […] Similarly, the toxicity of these compounds in terms of the viability of cells was estimated by using the MTT assay and cell counting kit-8 (CCK-8) assay. For MTT assay, after 24 h of treatments, MTT (5 mg/ml of PBS; HiMedia, India) was added, and cells were incubated for 2 h at 37 °C. The formazan crystals that were formed after the incubation were dissolved using dimethyl sulfoxide (DMSO). For the CCK-8 assay, 10 μL of CCK-8 solution (Boster Biological Technology, Pleasanton, CA, USA) was added to each well and incubated for 2 h at 37 °C. The absorbance for MTT and CCK-8 assay was measured at 570 nm and 450 nm respectively using the EnSightTM Multimode plate reader (Perkin Elmer, MA, USA)[49],[50].

[11] = discussion summary, cell model not specified
[12] = qRT-PCR, analogues at Vero IC50 concentration
[13] = qRT-PCR, analogues at Vero IC50 concentration, Dox, 5FU, Cis as positive cardiotoxic drugs

| Structure (SMILES) | LDH release in H9C2 cells (H9C2 cells [1]) | overall cardiotoxicity across the parameters analyzed [2] | ROS level in treated cardiomyocytes [2, 11] | active mitochondria status in treated cardiomyocytes [2, 11] | cytotoxic effect against cardiomyocytes by MTT, CCK-8 and LDH assay [2, 11] | intracellular calcium level in treated cardiomyocytes [2, 11] | LDH release in WJCM [3] | GATA4 gene expression in WJCM [4, 12] | MHCα gene expression in WJCM [4, 12] | Troponin I gene expression in WJCM [4, 12] | cardiac marker gene expression in WJCM (all markers together) [4, 13] | IC50 [5] | decrease in viability of H9C2 cells (MTT) (H9C2 cells [6]) | concentration found effective against cancer (colorectal cancer) | MTT cell viability in WJMSCs (WJMSCs [8]) | LDH release in WJMSCs (WJMSCs [9]) | CCK-8 in WJMSCs (WJMSCs [10]) | cardiac marker gene expression in WJCM (all markers together) [4] | further results |
| --- | --- | --- | --- | --- | --- | --- | --- | --- | --- | --- | --- | --- | --- | --- | --- | --- | --- | --- | --- |
| Cc1ccc(-c2oc3cc(C)ccc3c(=O)c2O)cc1 [QMJ-5, 3-Hydroxy-7-methyl-2-(4-methylphenyl)-4H-1-benzopyran-4-one] | increase in LDH | cardiotoxic | increased ROS levels | loss of mitochondria | induced toxicity | increased the level | increase in LDH | decreased the expression | decreased the expression | decreased the expression | drastic reduction | 55.6 µM | 10–20% | 27.4 µM |  |  |  |  |  |
| COc1cccc2c1C(=O)c1c(O)c3c(c(O)c1C2=O)C[C@@](O)(C(=O)CO)C[C@@H]3O[C@H]1C[C@H](N)[C@H](O)[C@H](C)O1 [Dox, doxorubicin, reference compound] |  |  | increased ROS level | affected cardiomyocyte mitochondrial activity |  | alternation in calcium |  |  |  |  | reduced all the cardiac markers expression drastically |  | ~25% |  | no significant difference | no significant difference | no significant difference |  | toxicity / cell viability in WJCM (MTT, CCK-8), result in words [7]: reduced cell viability drastically; NO production / NO levels [2, 11]: reduced NO production |
| O=C(/C=C/c1ccc(S(=O)(=O)NCc2cccs2)cc1)NO [NMJ-1] | increase in LDH | cardiotoxic | increased ROS levels | loss of mitochondria | induced toxicity | increased the level | increase in LDH | decreased the expression | decreased the expression | decreased the expression | drastic reduction | 9.7 µM | 10–20% | 5.07 µM |  |  |  |  |  |
| O=c1[nH]cc(F)c(=O)[nH]1 [5FU, 5-fluorouracil] |  |  |  |  |  |  |  |  |  |  | reduced all the cardiac markers expression drastically |  |  |  | no significant difference | no significant difference | no significant difference |  |  |
| Cc1ccc(-c2oc3ccccc3c(=O)c2O)cc1 [QMJ-2, 3-hydroxy-2-(4-methylphenyl)-4H-1-benzopyran-4-one] | increase in LDH | cardiotoxic | increased ROS levels | loss of mitochondria | induced toxicity | increased the level | increase in LDH | decreased the expression | decreased the expression | decreased the expression |  | 140 µM | 10–20% | 68 µM |  |  |  | drastic reduction | Troponin T gene expression in WJCM, result in words [4, 12]: milder increase |
| N.N.[Cl][Pt][Cl] [Cis, cisplatin] |  |  |  |  |  |  |  |  |  |  |  |  |  |  |  | no significant difference | no significant difference | reduced all the cardiac markers expression drastically |  |
